The values that follow come from patent US20110118238A1, “2-ANILINOPURIN-8-ONES AS INHIBITORS OF TTK/MPS1 FOR THE TREATMENT OF PROLIFERATIVE DISORDERS” (ASTRAZENECA AB, priority 2007, published 2011).

The target of assay [1] is T1, N-terminal GST tagged full length human TTK kinase (Homo sapiens, UniProt P33981).
T1 construct: N-terminal GST tagged full length human TTK kinase; GST (N); made in house; host or cells: insect cells
T1 sequence (P33981 1-857): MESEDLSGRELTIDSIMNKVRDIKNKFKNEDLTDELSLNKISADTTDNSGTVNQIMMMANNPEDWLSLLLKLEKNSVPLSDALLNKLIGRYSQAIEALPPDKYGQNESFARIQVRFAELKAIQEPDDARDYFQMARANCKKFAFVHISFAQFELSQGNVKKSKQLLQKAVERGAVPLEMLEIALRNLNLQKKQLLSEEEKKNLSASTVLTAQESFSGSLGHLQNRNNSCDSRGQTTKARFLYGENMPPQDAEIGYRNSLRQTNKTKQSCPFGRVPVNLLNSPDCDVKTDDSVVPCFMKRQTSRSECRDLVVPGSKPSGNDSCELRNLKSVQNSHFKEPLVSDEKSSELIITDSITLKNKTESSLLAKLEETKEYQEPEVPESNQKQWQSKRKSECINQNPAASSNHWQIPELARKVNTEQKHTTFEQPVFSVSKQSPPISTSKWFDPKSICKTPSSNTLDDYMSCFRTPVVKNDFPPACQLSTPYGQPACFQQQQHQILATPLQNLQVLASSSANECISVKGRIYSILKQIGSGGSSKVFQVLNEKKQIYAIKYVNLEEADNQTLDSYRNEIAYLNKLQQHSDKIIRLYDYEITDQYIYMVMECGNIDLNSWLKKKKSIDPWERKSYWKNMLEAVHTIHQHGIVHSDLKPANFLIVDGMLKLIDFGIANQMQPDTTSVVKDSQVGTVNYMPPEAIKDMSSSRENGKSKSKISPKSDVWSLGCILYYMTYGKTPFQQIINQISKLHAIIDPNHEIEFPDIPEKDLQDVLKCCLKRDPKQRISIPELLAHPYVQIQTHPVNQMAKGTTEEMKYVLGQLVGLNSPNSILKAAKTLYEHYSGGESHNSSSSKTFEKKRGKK
In words: In Vitro TTK Kinase Assay 2 (Caliper LabChip LC3000). The format is biochemical. Particulars: recombinant TTK, 12 μM ATP, read-out: EAA2: Enzyme Assay Activity (In Vitro TTK kinase assay 2). As to the method: Each reaction was stopped by the addition of EDTA to a concentration of 40 mM in a solution which also comprised 0.1% coating reagent (Caliper LS), 100 mM HEPES pH 7.5, 0.015% v/v Brij™-35 and 5% DMSO. The stopped enzyme reactions were sipped through capillaries onto a Caliper chip where the peptide substrate and phosphorylated product were separated and detected via laser-induced fluorescence.

Assay [2] deals with T1, N-terminal GST tagged full length human TTK kinase. In words: In Vitro TTK Kinase Assay 1 (AlphaScreen). Type of assay: biochemical. Particulars: recombinant TTK, 10 μM ATP, read-out: EAA: Enzyme Assay Activity (In Vitro TTK kinase assay 1). As to the method: Aliquots (2 μL) of each compound dilution were placed into wells of a Greiner 384-well low volume white polystyrene plate (Greiner Bio-one).
The resultant signals arising from laser light excitation at 680 nm were read using a Packard Envision instrument.
For orientation: Alpha assays give light when donor and acceptor beads are brought close together.

For the compound `COc1cc(CCN2CCN(C)CC2)ccc1Nc1ncc2c(n1)n(C1CCCC1)c(=O)n2C` [Example 27, 9-Cyclopentyl-2-({2-methoxy-4-[2-(4-methylpiperazin-1-yl)-ethyl]phenyl}amino)-7-methyl-7,9-dihydro-8H-purin-8-one], the figures for the IC50 in assay [1] and in assay [2] were 24.1 nM and 288 nM, respectively.

As for `COc1cc(N2CCOCC2)ccc1Nc1ncc2c(n1)n(C1CCCC1)c(=O)n2C` [Example 6, 9-Cyclopentyl-2-[(2-methoxy-4-morpholin-4-ylphenyl)-amino]-7-methyl-7,9-dihydro-8H-purin-8-one], the IC50 turned out to be 78 nM in assay [1] and 396 nM in assay [2]. As to `COc1cc(C2CCN(C)CC2)ccc1Nc1ncc2c(n1)n(C(C)C)c(=O)n2C` [Example 47, 9-Isopropyl-2-{[2-methoxy-4-(1-methylpiperidin-4-yl)phenyl]-amino}-7-methyl-7,9-dihydro-8H-purin-8-one], in assay [2], the IC50 was 5650 nM. As to `CCn1c(=O)n(C2CCCC2)c2nc(Nc3ccc(N4CCN(C)CC4)cc3OC)ncc21` [Example 29, 9-Cyclopentyl-7-ethyl-2-{[2-methoxy-4-(4-methylpiperazin-1-yl)-phenyl]amino}-7,9-dihydro-8H-purin-8-one], the figures for the IC50 in assay [1] and in assay [2] were 53.8 nM and 220 nM, respectively. The corresponding values for `COc1cc(N2CCCN(C)CC2)ccc1Nc1ncc2c(n1)n(C1CCCC1)c(=O)n2C` [Example 20, 9-Cyclopentyl-2-{[2-methoxy-4-(4-methyl-1,4-diazepan-1-yl)-phenyl]amino}-7-methyl-7,9-dihydro-8H-purin-8-one] are 39.5 nM and 249 nM. For `COc1cc(C2CCN(C)CC2)ccc1Nc1ncc2c(n1)n(C1CCCC1)c(=O)n2C` [Example 28, 9-Cyclopentyl-2-{[2-methoxy-4-(1-methylpiperidin-4-yl)-phenyl]amino}-7-methyl-7,9-dihydro-8H-purin-8-one], in that order: 14.3 nM and 55.4 nM. For `COc1cc(NC2CCN(C)CC2)ccc1Nc1ncc2c(n1)n(C1CCCC1)c(=O)n2C` [Example 22, 9-Cyclopentyl-2-({2-methoxy-4-[(1-methylpiperidin-4-yl)-amino]-phenyl}amino)-7-methyl-7,9-dihydro-8H-purin-8-one], the IC50 is 118 nM in assay [1] and 317 nM in assay [2].

Turning to `CCOc1cc(OCCN(C)C)ccc1Nc1ncc2c(n1)n(C1CCCC1)c(=O)n2C` [Example 25, 9-Cyclopentyl-2-({4-[2-(dimethylamino)ethoxy]-2-ethoxy-phenyl}-amino)-7-methyl-7,9-dihydro-8H-purin-8-one], the figures for the IC50 in assay [1] and in assay [2] were 28.9 nM and 149 nM, respectively. In the case of `CN1CCC(NC(=O)c2ccc(Nc3ncc4c(n3)n(C3CCCC3)c(=O)n4C)c(Cl)c2)CC1` [Example 15, 3-Chloro-4-[(9-cyclopentyl-7-methyl-8-oxo-8,9-dihydro-7H-purin-2-yl)amino]-N-(1-methylpiperidin-4-yl)benzamide], the IC50 came out at 235 nM in assay [1] and 3230 nM in assay [2]. The corresponding values for `COc1cc(NS(C)(=O)=O)ccc1Nc1ncc2c(n1)n(C1CCCC1)c(=O)n2C` [Example 7, N-{4-[(9-Cyclopentyl-7-methyl-8-oxo-8,9-dihydro-7H-purin-2-yl)-amino]-3-methoxyphenyl}methanesulfonamide] are 30.7 nM and 714 nM.

On to `CCn1c(=O)n(C2CCCC2)c2nc(Nc3ccc(C(=O)NC)cc3OC)ncc21` [Example 31, 4-[(9-Cyclopentyl-7-ethyl-8-oxo-8,9-dihydro-7H-purin-2-yl)-amino]-3-methoxy-N-methylbenzamide], for which the values for the IC50 in assay [1] and in assay [2] were 16.4 nM and 371 nM, respectively. The corresponding values for `COc1cc(C(=O)NC2CCN(C)CC2)ccc1Nc1ncc2c(n1)n(C1CCCC1)c(=O)n2C` [Example 1] are 64.6 nM and 622 nM. The corresponding values for `CCn1c(=O)n(C2CCCC2)c2nc(Nc3ccc(S(N)(=O)=O)cc3)ncc21` [Example 34, 4-[(9-Cyclopentyl-7-ethyl-8-oxo-8,9-dihydro-7H-purin-2-yl)-amino]benzenesulfonamide] are 96.3 nM and 1040 nM.
